Reference: patent publication US10370343B2, “[6,6] Fused bicyclic HDAC8 inhibitors” (FORMA Therapeutics, Inc., priority 2015, dated 2019)

Tests used:
[1] = target: T1, Full length human recombinant HDAC8 protein (Homo sapiens, UniProt Q9BY41); assay: In vitro histone deacetylase assay: enzymatic HDAC8 electrophoretic mobility shift assay; type: biochemical; details: electrophoretic mobility shift assay; enzyme 1 nM; 2 μM fluorescently labeled peptide substrate RHKK(Ac)-NH2; 25° C.; 12 concentrations; read-out: HDAC8 IC50
T1 construct: Full length human recombinant HDAC8 protein was expressed in baculoviral system; made in house
T1 sequence (Q9BY41 1-377): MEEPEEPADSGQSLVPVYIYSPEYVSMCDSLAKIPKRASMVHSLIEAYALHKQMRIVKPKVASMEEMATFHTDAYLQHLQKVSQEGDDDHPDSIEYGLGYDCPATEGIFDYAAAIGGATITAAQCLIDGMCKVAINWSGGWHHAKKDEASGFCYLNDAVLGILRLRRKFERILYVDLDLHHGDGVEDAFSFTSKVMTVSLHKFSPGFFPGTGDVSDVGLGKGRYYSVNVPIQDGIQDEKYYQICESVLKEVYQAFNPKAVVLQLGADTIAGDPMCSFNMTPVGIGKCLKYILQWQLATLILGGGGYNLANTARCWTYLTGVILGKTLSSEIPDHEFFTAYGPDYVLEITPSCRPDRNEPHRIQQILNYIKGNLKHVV

[2] = target: T2, Recombinant N-terminal GST tag full-length human HDAC8 (Homo sapiens, UniProt Q9BY41); assay: HDAC8 probe binding assay, time resolved fluorescence (TRF) format; details: compounds grouped by IC50 range (Table 2)
T2 construct: Recombinant N-terminal GST tag full-length human HDAC8; purchased SignalChem H90-30G-1000; host or cells: baculovirus in Sf9 insect cells
T2 sequence (Q9BY41 1-377): T1 sequence (Q9BY41 1-377)
How it was run: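 IC50 values come from four-parameter logistic fits of percent inhibition, scaled between DMSO (high) and no-enzyme (low) controls. Time-resolved fluorescence (ex 340, em 485/535 nm) was read after 16 h at room temperature. Enzyme was Sf9-expressed full-length human HDAC8 with an N-terminal GST tag, in a probe-binding format.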

| IC50 [1] | IC50 [2] | Structure (SMILES) |
| --- | --- | --- |
| < 25 nM | ≤ 25 nM | O=C(NO)c1ccc2c(c1)N(Cc1ccc(F)cc1)C(=O)CO2 [Compound I-37, 4-(4-fluorobenzyl)-N-hydroxy-3-oxo-3,4-dihydro-2H-benzo[b][1,4]oxazine-6-carboxamide] |
| < 25 nM | ≤ 25 nM | O=C(NO)c1ccc2c(c1)N(Cc1ccc(OC(F)(F)F)cc1)C(=O)CO2 [Compound I-36, N-hydroxy-3-oxo-4-(4-(trifluoromethoxy)benzyl)-3,4-dihydro-2H-benzo[b][1,4]oxazine-6-carboxamide] |
| < 25 nM | ≤ 25 nM | O=C(NO)c1ccc2c(c1)N(Cc1ccc(Cl)cc1)C(=O)CO2 [Compound I-64, 4-(4-chlorobenzyl)-N-hydroxy-3-oxo-3,4-dihydro-2H-benzo[b][1,4]oxazine-6-carboxamide] |
| 25 to 100 nM | 25 to 100 nM | CC(C)CCN1C(=O)COc2ccc(C(=O)NO)cc21 [Compound I-59, N-hydroxy-4-isopentyl-3-oxo-3,4-dihydro-2H-benzo[b][1,4]oxazine-6-carboxamide] |
| < 25 nM | ≤ 25 nM | COc1ccc(CN2C(=O)COc3ccc(C(=O)NO)cc32)c(F)c1F [Compound I-247, 4-(2,3-difluoro-4-methoxybenzyl)-N-hydroxy-3-oxo-3,4-dihydro-2H-benzo[b][1,4]oxazine-6-carboxamide] |
| 25 to 100 nM | ≤ 25 nM | O=C(NO)c1ccc2c(c1)N(Cc1cccc(F)c1)C(=O)CO2 [Compound I-33, 4-(3-fluorobenzyl)-N-hydroxy-3-oxo-3,4-dihydro-2H-benzo[b][1,4]oxazine-6-carboxamide] |
| < 25 nM | ≤ 25 nM | CCC1Oc2ccc(C(=O)NO)cc2N(Cc2ccc(OC)cc2)C1=O (stereo not shown) [Compound I-99, 2-ethyl-N-hydroxy-4-(4-methoxybenzyl)-3-oxo-3,4-dihydro-2H-benzo[b][1,4]oxazine-6-carboxamide] |
| < 25 nM | ≤ 25 nM | COc1ccc(CN2C(=O)C(C(C)C)Oc3ccc(C(=O)NO)cc32)cc1 (stereo not shown) [Compound I-100, N-hydroxy-2-isopropyl-4-(4-methoxybenzyl)-3-oxo-3,4-dihydro-2H-benzo[b][1,4]oxazine-6-carboxamide] |
| < 25 nM | ≤ 25 nM | O=C(NO)c1ccc2c(c1)N(Cc1ccc(-c3ccccc3)cc1)C(=O)CO2 [Compound I-251, 4-([1,1′-biphenyl]-4-ylmethyl)-N-hydroxy-3-oxo-3,4-dihydro-2H-benzo[b][1,4]oxazine-6-carboxamide] |
| < 25 nM | ≤ 25 nM | O=C(NO)c1ccc2c(c1)N(Cc1nc3cc(Cl)ccc3s1)C(=O)CO2 [Compound I-290, 4-((5-chlorobenzo[d]thiazol-2-yl)methyl)-N-hydroxy-3-oxo-3,4-dihydro-2H-benzo[b][1,4]oxazine-6-carboxamide] |
| 25 to 100 nM | 25 to 100 nM | CS(=O)(=O)c1cccc(CN2C(=O)COc3ccc(C(=O)NO)cc32)c1 [Compound I-145, N-hydroxy-4-(3-(methylsulfonyl)benzyl)-3-oxo-3,4-dihydro-2H-benzo[b][1,4]oxazine-6-carboxamide] |
| 25 to 100 nM | ≤ 25 nM | COc1ccc(CN2C(=O)C(CCN)Oc3ccc(C(=O)NO)cc32)cc1 (stereo not shown) [Compound I-104, 2-(2-aminoethyl)-N-hydroxy-4-(4-methoxybenzyl)-3-oxo-3,4-dihydro-2H-benzo[b][1,4]oxazine-6-carboxamide] |
| 25 to 100 nM | 25 to 100 nM | Cc1ccc2oc(CN3C(=O)COc4ccc(C(=O)NO)cc43)nc2c1 [Compound I-286, N-hydroxy-4-((5-methylbenzo[d]oxazol-2-yl)methyl)-3-oxo-3,4-dihydro-2H-benzo[b][1,4]oxazine-6-carboxamide] |
| < 25 nM | ≤ 25 nM | O=C(NO)c1ccc2c(c1)N(Cc1cccc(SC(F)(F)F)c1)C(=O)CO2 [Compound I-263, N-hydroxy-3-oxo-4-(3-((trifluoromethyl)thio)benzyl)-3,4-dihydro-2H-benzo[b][1,4]oxazine-6-carboxamide] |
